In US20210251228A1, “METHODS FOR REPELLING DROSOPHILA SPECIES USING 2-PENTYLFURAN” (The United States of America, as represented by the …, priority 2020, published 2021):

Key:
Drosophila suzukii [1] = assay: Field test 2 with known 2-pentylfuran release rate: SWD infestation of field raspberries; type: in vivo; conditions: 14.18 mg/h from two sachets, 48 h, N=15
Method: Field test 2 with known 2-pentylfuran release rate: We evaluated the effect of a known release rate of 2-pentylfuran on SWD infestation using 15 small plots of primocane raspberries (each plot=three 7 m rows of Heritage raspberries with 2.4 m between rows and with approximately 11 raspberries planted within each row) planted at different sites on research farms at Cornell AgriTech (plots separated by at least 0.5 km). The plantings were established in 2018 and the trial was conducted in the fall of 2019 as ripe raspberries were present along with high levels of SWD infestations in the area. At each plot we identified two fruiting canes (one for 2-pentylfuran treatment and one for control) that had large green fruit present separated by at least 3 m. After hand removal of any pink or ripe fruit, on 12 Sep. […] Ripe berries were removed from the canes, counted, weighed, placed in rearing cups (540 ml deli cups with approximately 1 cm of water agar at base with a perforated lid), and placed in a walk-in growth chamber (25° C., 55% r.h., 16:8 L:D) for 6 days at which time SWD were enumerated (mostly pupae, a few large larvae). Fruits from canes that were collected to estimate the background level of SWD infestation were evaluated for SWD infestation using the same method as for the canes used to test 2-pentylfuran. […]

Drosophila suzukii [2] = assay: No-choice oviposition cage experiment: release rate of 2-pentylfuran on raspberry; type: in vivo; conditions: 2 h
Method: Effects of Release Rate of 2-pentylfuran on SWD Oviposition on Raspberry: No Choice Test. Based on the significant effect of 2-pentylfuran using an unknown release rate in the field, to better understand concentration response of SWD to 2-pentylfuran, we evaluated the response of adult SWD to different ranges of 2-pentylfuran release rates in 2 h no choice oviposition cage experiments conducted in the greenhouse (25° C.; natural light; 40-60% r.h.). Cages (60 cm W×60 cm H×180 cm L, BioQuip, Rancho Dominguez, Calif.) were shrouded with a piece of shade cloth (120 cm W×120 cm H×300 cm L). […] Actual release rates from each dispenser used were measured for each assay by recording weight of the dispensers prior and post assay. […] Upon completion of the assay, total number of SWD eggs oviposited into the raspberries was determined with the aid of a dissecting microscope.
Statistical Analyses: Trap catch data from multiple-choice assay and two-choice assay were analyzed in a randomized block design with block as a random factor and different EAD-active compounds as a fixed factor using Poisson distribution with log link function and maximum likelihood estimation (Proc Glimmix, SAS Institute, SAS/STAT 9.2 User's Guide, Second Edition, 2009, SAS Institute Inc., Cary, N.C.). […]

CCCCCc1ccco1 [2-pentylfuran]
reduction of SWD infestation per berry relative to control (Drosophila suzukii [1]): 56% | release rate at which SWD oviposition began to decline relative to control (Drosophila suzukii [2]; greenhouse cages, raspberries, N=12): around 2.5 mg/h | reduction in number of eggs laid compared to control (Drosophila suzukii [2]; high release rate (5 and 10 mg/h)): 58%
